Test results as given in patent US20020026053A1, “Novel 3-(substituted) -2- indolinones compounds and use thereof as inhibitors of protein kinase activity” (priority 1997, published 2002).

Each molecule was assayed against T1, EGFR (Homo sapiens, UniProt P00533) (assay: Biochemical EGFR Assay).
T1 construct: endogenous in cells; host or cells: A431 cells (lysate, captured with SUMO1 anti-EGFR antibody)
Set-up: concentration or dose not given beside the values
How it was run: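 Readout is ABTS absorbance at 410 nm after anti-phosphotyrosine and HRP-antibody detection of EGFR autophosphorylation. The kinase was immunocaptured from A431 lysate, exposed 30 min to test compound diluted 1:10 in TBS, then phosphorylated for 5 min with ATP/MnCl2 before an EDTA stop.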

T1 sequence (P00533 25-1210): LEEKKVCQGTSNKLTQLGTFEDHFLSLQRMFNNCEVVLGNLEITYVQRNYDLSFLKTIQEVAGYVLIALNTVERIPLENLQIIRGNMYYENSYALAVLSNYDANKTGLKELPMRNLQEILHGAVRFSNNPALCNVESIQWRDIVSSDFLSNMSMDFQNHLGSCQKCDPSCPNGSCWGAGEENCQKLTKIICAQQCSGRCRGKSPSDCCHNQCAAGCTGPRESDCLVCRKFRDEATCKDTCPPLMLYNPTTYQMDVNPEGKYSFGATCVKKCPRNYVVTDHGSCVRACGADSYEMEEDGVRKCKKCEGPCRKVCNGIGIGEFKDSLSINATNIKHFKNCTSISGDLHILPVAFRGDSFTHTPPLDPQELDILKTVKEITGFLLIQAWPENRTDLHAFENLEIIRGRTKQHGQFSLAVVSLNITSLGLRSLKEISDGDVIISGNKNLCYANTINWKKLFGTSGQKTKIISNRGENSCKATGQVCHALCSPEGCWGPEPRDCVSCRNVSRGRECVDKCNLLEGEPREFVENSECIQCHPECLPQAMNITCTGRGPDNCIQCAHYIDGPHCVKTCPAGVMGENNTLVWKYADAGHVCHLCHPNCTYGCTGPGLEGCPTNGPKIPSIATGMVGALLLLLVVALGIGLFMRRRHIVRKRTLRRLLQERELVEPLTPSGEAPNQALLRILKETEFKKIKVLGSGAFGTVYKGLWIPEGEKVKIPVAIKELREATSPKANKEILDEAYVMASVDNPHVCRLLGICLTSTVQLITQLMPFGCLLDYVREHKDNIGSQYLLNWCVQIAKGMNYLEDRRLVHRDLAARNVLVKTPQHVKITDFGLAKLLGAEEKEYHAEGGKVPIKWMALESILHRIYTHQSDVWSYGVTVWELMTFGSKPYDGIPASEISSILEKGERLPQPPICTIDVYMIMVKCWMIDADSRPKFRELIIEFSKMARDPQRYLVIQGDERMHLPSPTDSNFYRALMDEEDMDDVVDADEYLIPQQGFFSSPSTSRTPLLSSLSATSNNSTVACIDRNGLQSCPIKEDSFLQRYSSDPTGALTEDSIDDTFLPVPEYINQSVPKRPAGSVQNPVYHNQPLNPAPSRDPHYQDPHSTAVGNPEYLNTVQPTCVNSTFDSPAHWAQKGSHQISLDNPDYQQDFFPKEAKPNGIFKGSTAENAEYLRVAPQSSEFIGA

SMILES	Biochem EGFR % Inhibition (P.167) [%]
Cc1c(Br)cc(Br)c2c1C(=Cc1ccc(F)cc1C(F)(F)F)C(=O)N2 [10719/H11]	−12.0
Cc1c(Br)cc(Br)c2c1C(=Cc1c(F)cc(F)cc1F)C(=O)N2 [10720/H02]	17.0
Cc1c(Br)ccc2c1C(=Cc1ccccc1C(F)(F)F)C(=O)N2 [10736/C03]	0.3
CNS(=O)(=O)c1ccc2c(c1)C(=Cc1cccc(Cl)c1)C(=O)N2 [10736/D06]	29.7
Cc1c(Br)cc(Br)c2c1C(=Cc1ccc(O)cc1)C(=O)N2 [10719/H07]	−2.8
O=C1Nc2ccc(I)cc2C1=Cc1cccc(Cl)c1 [10736/B06]	12.6
Cc1c(Br)ccc2c1C(=Cc1cccc(Cl)c1)C(=O)N2 [10736/C06]	4.8
Cc1c(Br)cc(Br)c2c1C(=Cc1ccc(Cl)cc1Cl)C(=O)N2 [10735/H10]	−16.3
O=C1Nc2c(Br)cc(Br)cc2C1=Cc1cccc(F)c1 [10736/A07]	30.2
O=C1Nc2ccc(S(=O)(=O)Nc3ccc(C(F)(F)F)cc3)cc2C1=Cc1ccc(Cl)cc1 [10736/E02]	2.0
O=C1Nc2ccc(S(=O)(=O)N3CCOCC3)cc2C1=Cc1cccc(F)c1 [10736/F07]	−12.1
CNS(=O)(=O)c1ccc2c(c1)C(=Cc1cccc(OC)c1)C(=O)N2 [10736/D10]	10.5
Cc1cccc(C=C2C(=O)Nc3ccc(I)cc32)c1 [10736/B04]	−9.0
O=C1Nc2ccc(S(=O)(=O)Nc3ccc(C(F)(F)F)cc3)cc2C1=Cc1cccc(F)c1 [10736/E07]	−26.7
Cc1ccc(C=C2C(=O)Nc3ccc(I)cc32)cc1 [10736/B05]	14.9
O=C1Nc2ccc(S(=O)(=O)Nc3ccc(C(F)(F)F)cc3)cc2C1=Cc1ccccc1C(F)(F)F [10736/E03]	90.2
COc1cccc(C=C2C(=O)Nc3ccc(S(=O)(=O)Nc4ccc(C(F)(F)F)cc4)cc32)c1 [10736/E10]	−24.0
COc1cccc(C=C2C(=O)Nc3ccc(I)cc32)c1 [10736/B10]	15.6
CCc1ccc(C=C2C(=O)Nc3ccc(S(=O)(=O)N4CCOCC4)cc32)cc1 [10736/F09]	6.3
O=C1Nc2ccc(S(=O)(=O)N3CCOCC3)cc2C1=Cc1ccccc1F [10736/F08]	−2.8
CCc1ccc(C=C2C(=O)Nc3ccc(Br)c(C)c32)cc1 [10736/C09]	4.6
O=C1Nc2ccc(I)cc2C1=Cc1ccccc1F [10736/B08]	8.4
N#Cc1ccccc1C=C1C(=O)Nc2ccc(CCCl)cc21 [10735/G07]	4.6
Cc1ccc(C=C2C(=O)Nc3c(Br)cc(Br)cc32)cc1 [10736/A05]	80.1
COc1cccc(C=C2C(=O)Nc3ccc(Br)c(C)c32)c1 [10736/C10]	−0.3
O=C1Nc2ccc(S(=O)(=O)Nc3ccc(C(F)(F)F)cc3)cc2C1=Cc1ccccc1Cl [10736/E11]	−74.1
O=C1Nc2ccc(CCCl)cc2C1=Cc1ccc(Cl)cc1Cl [10735/G10]	4.5

SMILES	Biochem EGFR % Inhibition (P.167) [%]
Cc1cccc(C=C2C(=O)Nc3ccc(S(=O)(=O)Nc4ccc(C(F)(F)F)cc4)cc32)c1 [10736/E04]	−17.2
COc1cccc(C=C2C(=O)Nc3c(Br)cc(Br)cc32)c1 [10736/A10]	−0.1
Cc1c(Br)cc(Br)c2c1C(=Cc1ccc(F)cc1Cl)C(=O)N2 [10719/H09]	−33.5
O=C1Nc2c(Br)cc(Br)cc2C1=Cc1cccc(Cl)c1 [10736/A06]	34.4
Cc1cccc(C=C2C(=O)Nc3ccc(S(=O)(=O)N4CCOCC4)cc32)c1 [10736/F04]	−21.7
CCc1ccc(C=C2C(=O)Nc3ccc(I)cc32)cc1 [10736/B09]	−3.5
O=C1Nc2ccc(S(=O)(=O)N3CCOCC3)cc2C1=Cc1cccc(Cl)c1 [10736/F06]	25.1
Cc1ccc(C=C2C(=O)Nc3ccc(Br)c(C)c32)cc1 [10736/C05]	16.8
Cc1c(Br)cc(Br)c2c1C(=Cc1cccc([N+](=O)[O-])c1)C(=O)N2 [10719/H10]	14.6
Cc1c(Br)ccc2c1C(=Cc1cccc(F)c1)C(=O)N2 [10736/C07]	−8.1
CNS(=O)(=O)c1ccc2c(c1)C(=Cc1cccc(F)c1)C(=O)N2 [10736/D07]	47.1
O=C1Nc2ccc(I)cc2C1=Cc1ccc(Cl)cc1 [10736/B02]	−38.8
O=C1Nc2c(Br)cc(Br)cc2C1=Cc1ccc(Cl)cc1 [10736/A02]	7.7
Cc1cccc(C=C2C(=O)Nc3ccc(Br)c(C)c32)c1 [10736/C04]	90.2
Cc1c(Br)cc(Br)c2c1C(=Cc1cccc3ccccc13)C(=O)N2 [10735/H09]	−10.7
Cc1c(Br)ccc2c1C(=Cc1ccccc1Cl)C(=O)N2 [10736/C11]	−4.5
Cc1cccc(C=C2C(=O)Nc3c(Br)cc(Br)cc32)c1 [10736/A04]	14.1
O=C1Nc2ccc(S(=O)(=O)N3CCOCC3)cc2C1=Cc1ccccc1C(F)(F)F [10736/F03]	94.0
O=C1Nc2ccc(I)cc2C1=Cc1ccccc1C(F)(F)F [10736/B03]	−51.7
Cc1c(Br)cc(Br)c2c1C(=Cc1ccc(N(C)C)cc1)C(=O)N2 [10719/H08]	2.9
Cc1ccccc1C=C1C(=O)Nc2c(Br)cc(Br)c(C)c21 [10735/H02]	3.6
Cc1c(Br)ccc2c1C(=Cc1ccccc1F)C(=O)N2 [10736/C08]	−0.5
O=C1Nc2ccc(S(=O)(=O)N3CCOCC3)cc2C1=Cc1ccc(Cl)cc1 [10736/F02]	−4.5
O=C1Nc2c(Br)cc(Br)cc2C1=Cc1ccccc1F [10736/A08]	27.6
O=C1Nc2ccc(CCCl)cc2C1=Cc1c(F)cccc1F [10735/G08]	1.6
Cc1c(Br)cc(Br)c2c1C(=Cc1cc(C(F)(F)F)cc(C(F)(F)F)c1)C(=O)N2 [10735/H06]	−14.2
Cc1c(Br)cc(Br)c2c1C(=Cc1c(F)cccc1F)C(=O)N2 [10735/H08]	6.8

SMILES	Biochem EGFR % Inhibition (P.167) [%]
O=C1Nc2ccc(S(=O)(=O)Nc3ccc(C(F)(F)F)cc3)cc2C1=Cc1cccc(Cl)c1 [10736/E06]	47.3
O=C1Nc2ccc(CCCl)cc2C1=Cc1ccc(-c2ccccc2)cc1 [10735/G11]	2.9
Cc1c(Br)cc(Br)c2c1C(=Cc1ccc(F)c(F)c1)C(=O)N2 [10735/H03]	−1.0
Cc1c(Br)cc(Br)c2c1C(=Cc1cccc(C(F)(F)F)c1)C(=O)N2 [10735/H05]	−0.3
O=C1Nc2c(Br)cc(Br)cc2C1=Cc1ccccc1Cl [10736/A11]	−29.3
O=C1Nc2ccc(I)cc2C1=Cc1ccccc1Cl [10736/B11]	−3.7
Cc1c(Br)cc(Br)c2c1C(=Cc1ccccc1C#N)C(=O)N2 [10735/H07]	3.8
CNS(=O)(=O)c1ccc2c(c1)C(=Cc1ccccc1Cl)C(=O)N2 [10736/D11]	51.7
CNS(=O)(=O)c1ccc2c(c1)C(=Cc1cccc(C)c1)C(=O)N2 [10736/D04]	24.9
O=C1Nc2ccc(CCCl)cc2C1=Cc1cccc2ccccc12 [10735/G09]	19.8
CNS(=O)(=O)c1ccc2c(c1)C(=Cc1ccccc1C(F)(F)F)C(=O)N2 [10736/D03]	−3.7
Cc1c(Br)ccc2c1C(=Cc1ccc(Cl)cc1)C(=O)N2 [10736/C02]	−47.1
CNS(=O)(=O)c1ccc2c(c1)C(=Cc1ccc(Cl)cc1)C(=O)N2 [10736/D02]	1.8
CCc1ccc(C=C2C(=O)Nc3ccc(S(=O)(=O)NC)cc32)cc1 [10736/D09]	66.8
O=C1Nc2ccc(I)cc2C1=Cc1cccc(F)c1 [10736/B07]	8.4
Cc1ccc(C=C2C(=O)Nc3ccc(S(=O)(=O)Nc4ccc(C(F)(F)F)cc4)cc32)cc1 [10736/E05]	17.0
Cc1c(Br)cc(Br)c2c1C(=Cc1ccc(-c3ccccc3)cc1)C(=O)N2 [10735/H11]	−4.2
Cc1ccc(C=C2C(=O)Nc3ccc(S(=O)(=O)N4CCOCC4)cc32)cc1 [10736/F05]	−6.0
CCc1ccc(C=C2C(=O)Nc3c(Br)cc(Br)cc32)cc1 [10736/A09]	20.0
CNS(=O)(=O)c1ccc2c(c1)C(=Cc1ccccc1F)C(=O)N2 [10736/D08]	90.9
O=C1Nc2ccc(S(=O)(=O)Nc3ccc(C(F)(F)F)cc3)cc2C1=Cc1ccccc1F [10736/E08]	−47.3
COc1cc(O)ccc1C=C1C(=O)Nc2c(Br)cc(Br)c(C)c21 [10720/H03]	−13.9
O=C1Nc2c(Br)cc(Br)cc2C1=Cc1ccccc1C(F)(F)F [10736/A03]	24.2
Cc1c(Br)cc(Br)c2c1C(=Cc1cc(F)cc(F)c1)C(=O)N2 [10735/H04]	−9.3
CCc1ccc(C=C2C(=O)Nc3ccc(S(=O)(=O)Nc4ccc(C(F)(F)F)cc4)cc32)cc1 [10736/E09]	−40.1
CNS(=O)(=O)c1ccc2c(c1)C(=Cc1ccc(C)cc1)C(=O)N2 [10736/D05]	−7.9
